We go through 1 substance from patent publication US20240050513A1, “COMPOSITION FOR PREVENTING, AMELIORATING, OR TREATING DISEASE CAUSED BY PROTEIN NITRATION […] WITH TERMINAL TYROSINE AS EFFECTIVE COMPONENT” (INDUSTRY-ACADEMIC COOPERATION FOUNDATION GYEONGSANG …, priority 2021, published 2024).

Assay [1] relates to chronic immobilization stress C57BL/6 mice. The conditions noted are these: stress group, peptide diet vs normal diet. As to the method:
A total of 28 male C57BL/6 mice at 7 weeks of age were divided into two groups: a control group (CTL) and a stress group (STR). The stress group was subjected to chronic immobilization stress for 15 days. Specifically, each mouse in the stress group was individually placed in a restrainer for 2 hours daily from […] to induce chronic immobilization stress. The control group (CTL) and stress group (STR) were further classified based on their diets. […] After the completion of the 15-day chronic immobilization stress, the mice were subjected to a sucrose preference test (SPT). Blood samples and prefrontal cortex (PFC) tissues were collected from the mice for subsequent test.
For the analysis of anti-depressive effect, blood and PFC tissues were collected from mice that underwent chronic immobilization stress. The blood collected from mice was centrifuged at 1,000×g for 10 minutes at 4° C. to separate the plasma, and the supernatant was collected and diluted 1/20 with PBS to prepare a sample. The corticosterone concentration in the plasma was then measured using the Corticosterone EIA kit (Cayman) by following the manufacturer's instructions.
In addition, the plasma diluted with PBS at a ⅓ ratio and the PFC tissue lysate (50 μg) were prepared. The ROS/RNS (reactive oxygen species/reactive nitrogen species) level in the plasma and PFC tissues was measured using the ROS/RNS assay kit (Cell Biolabs) according to the manufacturer's instructions.
In addition, the depression was evaluated by measuring the sucrose preference of mice that had undergone 15 days of chronic immobilization stress. The sucrose preference test was conducted over a total of 4 days. Equal amounts of 0.1 M sucrose solution and water were provided in identical bottles of the same size and shape. On the first day, mice were given access to 0.1 M sucrose solution and water for 24 hours. On the second day, the positions of the sucrose solution and water bottles were switched, and mice were given access for 24 hours. On the third day, no sucrose solution or water was provided. On the fourth day, mice were again given access to equal amounts of 0.1 M sucrose solution and water for 3 hours, the positions were then switched, and access was provided for another 3 hours. The amount of sucrose solution and water consumed during the 6-hour period on the fourth day was measured, and the sucrose preference (%) was calculated according to the following formula.
Sucrose preference (%)=Sucrose intake amount/(Water intake amount+Sucrose intake amount)×100

For assay [2] the test system is unchanged. Kind of assay: Cognitive function (ORT/OLT) in chronic immobilization stress model. The assay is classed as in vivo. The conditions noted are these: stress group, peptide-supplemented diet vs normal diet. The protocol:
To analyze the long-term memory capacity of animals following the peptide diet of the present invention, both the object recognition test (ORT) and object location recognition test (OLT) were conducted (FIG. 1). The tests consisted of three phases: habituation, familiarization, and test. During the habituation phase, the animals were acclimated to the testing apparatus for 10 minutes per day over two days. On the third day at the familiarization phase, the animals were allowed to explore two identical objects for 10 minutes. Subsequently, on the fourth day at the test phase, one of the objects was replaced with a novel object, and the animals were allowed to explore for 10 minutes, with result recorded during the initial 5 minutes was used as test data. The object recognition test (ORT) index was calculated using the following formula.
Discrimination index=(N−F)/(N+F) • N: Time spent for exploring new object • F: Time spent for exploring familiar object
After 24 hours of performing the ORT, the location of the familiar object was changed, and the animals were allowed to explore for 5 minutes. During the total exploration time, the ratio of time spent exploring the object with a changed location was calculated to determine the object location recognition test (OLT) index.
A total of 28 seven-week-old male C57BL/6 mice were divided into two groups: a control group and a stress group. […]

For assay [3], the system named is superoxide dismutase (SOD). Nature of the assay: Hippocampal SOD activity in ischemic stroke model. The assay is classed as in vivo, Mongolian gerbils. The conditions noted are these: hippocampus, 200 mg/kg i.p. once, twenty-four hours after reperfusion. As to the method: (§1) Three-month-old male Mongolian gerbils were induced with general anesthesia using 3% isoflurane and the anesthesia was maintained with 2.5% isoflurane gas. After sterilizing the neck area, a midline incision was made to expose both common carotid arteries, and microvessel clip was used to block the blood flow for 5 minutes, inducing cerebral ischemia to simulate a stroke. During the application of the microvessel clip, the body temperature was maintained at 37.0±0.5° C., and animals undergoing sham operation were used as the control group.
(§2) After inducing ischemia, the animal was, under reperfusion, intraperitoneally administered once with YQ peptide at a dose of 200 mg/kg. Two hours or twenty-four hours after the reperfusion, the animal was anesthetized with avertin. Then, the skull was quickly opened, and the brain was rapidly removed. The hippocampal tissue was collected and rapidly frozen in liquid nitrogen, then stored in a deep freezer. Subsequently, the activities of superoxide dismutase (SOD) and catalase (CAT) were measured by using SOD colorimetric activity kit and CAT colorimetric activity kit, respectively.

The subject of the next assay is catalase (CAT). Kind of assay: Hippocampal catalase activity in ischemic stroke model. The conditions noted are these: hippocampus, 200 mg/kg i.p. once, twenty-four hours after reperfusion. Format: in vivo, Mongolian gerbils. As to the method: as §1, §2
For assay [4], the system named is azoxymethane (AOM) hyperammonemia C57BL/6 mice. Nature of the assay: Azoxymethane-induced hyperammonemia model. The assay is classed as in vivo. As to the method: They were allowed free access to water and food. The mice were divided into four groups: (1) control group (Control), (2) hyperammonemia group administered with water (Veh+AOM), (3) hyperammonemia group administered with 100 mg/kg YQ peptide (YQ100+AOM), and (4) hyperammonemia group administered with 200 mg/kg YQ peptide (YQ200+AOM). YQ peptide was administered orally once a day for four consecutive days. On the fourth day, 2 hours after the last oral administration of YQ peptide, azoxymethane (AOM) at a dose of 100 mg/kg was intraperitoneally injected to induce hyperammonemia. To prevent dehydration 12 hours after AOM administration, 200 μl of physiological saline containing 0.5% glucose were injected into the abdominal cavity.
Ammonia is a primary metabolite of amino acids and nucleic acids, and the main enzymes involved in the conversion of ammonia into urea in urea cycle are found only in liver cells. In addition, the liver tissue is also rich in enzymes such as GS (glutamine synthetase) and SOD (superoxide dismutase), which help lower ammonia level, and catalase which removes reactive oxygen species. Therefore, a change in blood ammonia level as it travels from the liver to the brain through the bloodstream serves as an important indicator of hepatic encephalopathy. Accordingly, to measure the amount of blood ammonia, a PocketChem BA PA-4140 analyzer (Arkray, Japan), which is a single-wavelength reflectance measurement analyzer, was utilized. The analyzer measures the absorbance at 635 nm (LED) wavelength after the reaction 20 μl of blood with the test strip at room temperature for 3 minutes.
Western blot analysis was performed using an antibody against nitrotyrosine.

The test system of assay [5] is glutamine synthetase (GS). Kind of assay: Hippocampal glutamine synthetase activity in kainic acid epileptic seizure model.
Protocol: Kainic acid (KA) was dissolved in saline by heating in a water bath, resulting in a 4.5 mg/ml KA solution. The resulting KA solution was then intraperitoneally injected at a dose of 36 mg/kg, and seizure level and symptoms were recorded for 2 hours. The brain tissues (prefrontal cortex and hippocampus) of the mice that survived 16 hours or 5 days after the KA injection were collected.
To a 96-well plate, 2 μl of hippocampal homogenate was added, and 50 μl of 50 mM imidazole-HCl buffer (pH 6.8) were added to adjust the volume to 50 μl. Then, 50 μl of GS assay buffer (50 mM imidazole-HCl, pH 6.8, 25 mM L-glutamine, 12.5 mM hydroxylamine, 12.5 mM sodium arsenate, 1 mM MnCl2, and 0.08 mM ADP) were added and the reaction was allowed to occur at 37° C. for approximately 40 minutes. […] To terminate the reaction, 100 μl of stop solution (90 mM FeCl3, 1.8 N HCl, and 1.45% w/v trichloroacetic acid) were added to both the samples and the standard substance, and the absorbance was measured at 560 nm. The GS activity in each sample was determined by comparing it with the standard curve. GS activity was expressed as the generation amount of γ-glutamylhydroxamate, which is produced as a final product, and described in unit of μM/min/μg protein.
Where [6] appears, read: YQ200+AOM (200 mg/kg) vs veh+AOM, p<0.05.

Regarding tyrosine-glutamine [YQ], in assay [1], the “ROS/RNS level in PFC tissue” value was “decreased” and the sucrose preference entry was “increased”. Moreover, in assay [2], the cognitive function entry is on record as “enhanced cognitive function”. Besides, the SOD activity result in assay [3] is “activity increases”. The CAT activity result in the assay on catalase (CAT) is “activity increases”. In addition, in assay [4] (setting [6]), the “expression level of nitrotyrosine in liver tissues” value is listed as “statistically significant decrease” and the serum ammonia concentration entry is recorded as “statistically significant decrease”. Moreover, the “increase in blood ammonia caused by AOM” value in assay [4] (YQ oral once a day four days (100 or 200 mg/kg)) is recorded as “significantly suppressed”. The “nitrotyrosine protein level in the liver tissue” value in assay [4] (YQ oral once a day four days, after AOM) is given as “significantly reduced”. In assay [5] (kainic acid-treated animals, YQ i.p vs normal diet), the “activity of glutamine synthetase” value is given as “statistically significantly increased”. Moreover, the “activity of the glutamine synthetase in the hippocampal tissue” value in assay [5] (survived mice after kainic acid, 3xYQ) is on record as “increased”.
